Entries after “also recorded” stand apart in the source; their conditions may differ.
Tests used:
[1] = target: T1, CDK9 (Homo sapiens, UniProt P50750); assay: Co-immunoprecipitation of CRIF1 with CDK9; format: binding
T1 construct: endogenous in cells
Description: (§1) FIGS. 5A-5I. The Mitochondrial OX-PHOS Regulator, CRIF1, is a Novel Subunit of the Human CDK12 Kinase Complex. (A) Identification of CRIF1 as a near-stoichiometric subunit of the native CDK12 kinase complex. MudPIT analysis of CDK12 complexes from HEK293 cells that stably express HA-tagged full-length human CDK12. The HA-CDK12 complex was affinity-purified using anti-HA antibody and visualized by SDS-PAGE and silver-stain. (B) List of the identified proteins in the HA-CDK12 complex from (A). (C) Endogenous CRIF1 co-immunoprecipitates with native CDK12 in U2OS cell extracts. Shown is an immunoblot analysis of CRIF1, CCNK, and the chaperone proteins CDC37 and HSP90 in an anti-CDK12 immunoprecipitate. (D) CRIF1 is a specific subunit of the CDK12 complex. Native CRIF1 was immunoprecipitated from U2OS cells using an anti-CRIF1 antibody and analyzed by co-immunoprecipitation for association with various CDKs, as indicated. […] FLAG-CRIF1 proteins containing different C-terminal truncations were co-expressed with HA-CDK12 (aa 985-1490) and analyzed for binding by co-immunoprecipitation and immunoblot. […] Cell viability was analyzed after 72 hr. […] Expression of the mitochondrial MTCO-1 (COX1) protein was assessed using two different antisera. […] Each fraction (T; total, C:cytosolic, M:membrane/organelle, and N:nuclear) was analyzed by immunoblot using the indicated antibodies. […]

[2] = target: T2, affinity-purified CDK9/P-TEFb complex (Homo sapiens, UniProt P50750); assay: In vitro kinase assay: CDK9/P-TEFb phosphorylation of GST-CTD; format: biochemical; conditions: affinity-purified FLAG-CDK9 kinase, immunoblot
T2 construct: FLAG; made in house
T2 sequence (P50750 whole entry): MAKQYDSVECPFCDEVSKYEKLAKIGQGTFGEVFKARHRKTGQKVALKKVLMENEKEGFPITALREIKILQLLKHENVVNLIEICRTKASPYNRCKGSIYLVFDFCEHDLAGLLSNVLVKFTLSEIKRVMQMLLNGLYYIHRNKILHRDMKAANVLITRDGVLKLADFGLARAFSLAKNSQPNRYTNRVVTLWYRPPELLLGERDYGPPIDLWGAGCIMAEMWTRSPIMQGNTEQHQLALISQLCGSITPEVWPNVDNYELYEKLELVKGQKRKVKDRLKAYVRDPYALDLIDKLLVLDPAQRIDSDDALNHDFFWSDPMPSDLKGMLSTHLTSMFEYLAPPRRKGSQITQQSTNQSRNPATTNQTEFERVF
T2 sequence (O60563 whole entry partner): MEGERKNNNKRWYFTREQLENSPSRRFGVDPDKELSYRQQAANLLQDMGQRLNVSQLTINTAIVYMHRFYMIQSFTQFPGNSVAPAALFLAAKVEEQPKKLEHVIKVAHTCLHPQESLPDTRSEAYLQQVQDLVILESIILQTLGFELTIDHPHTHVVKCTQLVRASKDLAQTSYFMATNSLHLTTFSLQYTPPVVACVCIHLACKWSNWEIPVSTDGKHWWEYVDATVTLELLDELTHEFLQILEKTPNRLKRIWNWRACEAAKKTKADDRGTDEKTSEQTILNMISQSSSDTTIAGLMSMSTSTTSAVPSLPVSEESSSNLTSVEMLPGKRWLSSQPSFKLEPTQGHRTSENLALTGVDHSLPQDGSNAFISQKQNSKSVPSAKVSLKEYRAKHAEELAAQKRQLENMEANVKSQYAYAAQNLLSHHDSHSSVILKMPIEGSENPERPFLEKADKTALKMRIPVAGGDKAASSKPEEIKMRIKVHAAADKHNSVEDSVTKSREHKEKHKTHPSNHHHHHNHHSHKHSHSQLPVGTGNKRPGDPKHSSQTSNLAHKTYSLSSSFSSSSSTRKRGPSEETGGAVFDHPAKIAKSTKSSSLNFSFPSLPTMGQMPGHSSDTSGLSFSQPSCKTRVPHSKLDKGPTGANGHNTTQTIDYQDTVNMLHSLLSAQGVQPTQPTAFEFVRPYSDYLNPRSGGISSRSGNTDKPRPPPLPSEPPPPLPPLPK
Description: (§2) (A) CRIF1 and CDK12 have opposite effects on global RNAPII CTD-Ser2P levels in vivo. U2OS cells were transfected with indicated siRNAs for 48 hr, and RNAPII phosphorylation was monitored by immunoblot using phospho-specific CTD (Ser2P and Ser5P) antibodies. (B) Knockdown of CRIF1 up-regulates CHK1 expression and induction of p53. […] (C) Analysis of steady-state mRNA levels by qRT-PCR in extracts from U2OS cells exposed to control (CTL) or CRIF1-specific siRNAs, as indicated. (D) Depletion of CRIF1 enhances 4E-BP1 phosphorylation at S65 and T70 in vivo, as assessed by immunoblot using phospho-specific antibodies. (E) CRIF1 inhibits RNAPII CTD-Ser2 phosphorylation by CDK12 complexes in vitro. The human GST-CTD (52 repeat) protein was incubated in vitro with the affinity-purified HA-CDK12 kinase complex in the absence or presence of increasing levels of purified recombinant CRIF1, and analyzed by immunoblot with the indicated antisera. […] Analysis of GST-CTD Ser2 phosphorylation was carried out as described in (E), using the affinity-purified FLAG-CDK9 kinase. (G) CRIF1 inhibits 4E-BP1 phosphorylation by CDK12 in vitro. […] was monitored by immunoblot in the absence or in the presence of different levels of affinity-purified recombinant CRIF1. […]

[3] = target: T3, CDK8 (Homo sapiens, UniProt P49336); assay: Co-immunoprecipitation of CRIF1 with CDK8; format: binding
T3 construct: endogenous in cells
T3 sequence (P49336 whole entry): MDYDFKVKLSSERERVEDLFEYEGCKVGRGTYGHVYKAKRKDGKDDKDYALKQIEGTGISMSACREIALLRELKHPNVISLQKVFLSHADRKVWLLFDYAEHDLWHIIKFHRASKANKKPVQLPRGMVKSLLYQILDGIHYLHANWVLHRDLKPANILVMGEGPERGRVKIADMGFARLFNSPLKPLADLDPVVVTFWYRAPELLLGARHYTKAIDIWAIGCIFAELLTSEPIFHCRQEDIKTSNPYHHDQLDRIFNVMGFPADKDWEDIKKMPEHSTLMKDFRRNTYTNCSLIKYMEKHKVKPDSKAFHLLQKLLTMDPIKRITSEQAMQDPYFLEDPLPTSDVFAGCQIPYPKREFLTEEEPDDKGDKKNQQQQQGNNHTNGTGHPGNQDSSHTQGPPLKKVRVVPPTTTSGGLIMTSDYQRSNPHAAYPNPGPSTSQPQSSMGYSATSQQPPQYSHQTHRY
Description: as §1

[4] = test system: CDK12; assay: In vitro kinase assay: CDK12 phosphorylation of recombinant 4E-BP1 (S65, T70); format: biochemical, human; conditions: reactions with CDK12 and mTORC1/Raptor, dose-dependent
Sequence of CDK12 (Q9NYV4 whole entry): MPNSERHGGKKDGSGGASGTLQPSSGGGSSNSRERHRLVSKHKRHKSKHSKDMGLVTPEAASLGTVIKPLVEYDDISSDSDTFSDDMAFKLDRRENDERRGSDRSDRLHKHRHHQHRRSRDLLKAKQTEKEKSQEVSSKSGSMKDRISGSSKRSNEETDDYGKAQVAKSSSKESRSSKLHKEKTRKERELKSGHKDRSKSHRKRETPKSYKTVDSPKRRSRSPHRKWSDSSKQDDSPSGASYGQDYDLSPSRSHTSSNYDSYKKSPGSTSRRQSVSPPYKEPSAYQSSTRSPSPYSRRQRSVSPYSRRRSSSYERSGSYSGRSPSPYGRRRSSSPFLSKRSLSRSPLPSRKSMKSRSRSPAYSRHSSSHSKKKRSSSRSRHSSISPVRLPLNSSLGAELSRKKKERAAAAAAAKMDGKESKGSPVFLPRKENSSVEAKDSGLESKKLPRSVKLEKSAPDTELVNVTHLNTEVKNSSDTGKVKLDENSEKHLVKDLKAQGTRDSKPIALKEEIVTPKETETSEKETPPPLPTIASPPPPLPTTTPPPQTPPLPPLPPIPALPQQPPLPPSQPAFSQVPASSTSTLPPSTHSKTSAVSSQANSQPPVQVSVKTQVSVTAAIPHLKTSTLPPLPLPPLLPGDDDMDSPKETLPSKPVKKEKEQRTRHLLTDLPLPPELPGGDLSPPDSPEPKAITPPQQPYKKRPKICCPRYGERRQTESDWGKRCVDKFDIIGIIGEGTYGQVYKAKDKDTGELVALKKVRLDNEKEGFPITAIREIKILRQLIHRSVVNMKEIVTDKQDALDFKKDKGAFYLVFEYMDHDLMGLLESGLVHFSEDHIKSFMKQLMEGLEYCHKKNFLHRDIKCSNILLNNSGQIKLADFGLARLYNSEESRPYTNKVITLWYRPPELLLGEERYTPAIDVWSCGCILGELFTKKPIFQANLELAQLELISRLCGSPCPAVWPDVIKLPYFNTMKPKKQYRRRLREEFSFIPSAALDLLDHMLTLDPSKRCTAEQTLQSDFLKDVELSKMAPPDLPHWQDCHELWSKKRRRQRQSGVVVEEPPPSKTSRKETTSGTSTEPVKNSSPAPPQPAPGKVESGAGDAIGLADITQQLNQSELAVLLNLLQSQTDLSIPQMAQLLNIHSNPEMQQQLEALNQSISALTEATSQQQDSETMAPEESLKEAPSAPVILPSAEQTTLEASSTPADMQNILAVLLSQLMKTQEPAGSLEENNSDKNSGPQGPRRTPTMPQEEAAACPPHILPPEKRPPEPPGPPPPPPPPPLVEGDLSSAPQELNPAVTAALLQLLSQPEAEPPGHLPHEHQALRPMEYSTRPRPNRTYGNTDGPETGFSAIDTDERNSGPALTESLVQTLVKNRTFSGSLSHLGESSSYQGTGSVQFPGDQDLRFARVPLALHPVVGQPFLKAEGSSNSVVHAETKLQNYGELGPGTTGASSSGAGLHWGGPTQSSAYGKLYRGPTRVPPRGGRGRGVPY
Sequence of CDK12 (O75909 whole entry partner): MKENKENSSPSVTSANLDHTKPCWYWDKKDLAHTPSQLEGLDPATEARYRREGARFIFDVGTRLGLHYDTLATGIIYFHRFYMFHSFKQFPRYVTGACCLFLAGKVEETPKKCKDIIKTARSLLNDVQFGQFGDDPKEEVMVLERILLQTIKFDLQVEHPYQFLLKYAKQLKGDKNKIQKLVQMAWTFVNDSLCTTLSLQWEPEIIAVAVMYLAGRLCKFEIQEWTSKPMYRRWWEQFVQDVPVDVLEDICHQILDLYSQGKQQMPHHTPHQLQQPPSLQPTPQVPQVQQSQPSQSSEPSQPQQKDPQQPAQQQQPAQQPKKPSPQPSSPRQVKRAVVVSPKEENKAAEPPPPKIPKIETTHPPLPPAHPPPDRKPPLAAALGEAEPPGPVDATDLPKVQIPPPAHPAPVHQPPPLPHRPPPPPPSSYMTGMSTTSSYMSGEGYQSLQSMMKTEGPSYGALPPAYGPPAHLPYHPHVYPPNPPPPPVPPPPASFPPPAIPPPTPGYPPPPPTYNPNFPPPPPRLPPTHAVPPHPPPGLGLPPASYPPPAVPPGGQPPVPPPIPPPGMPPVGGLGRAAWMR
Description: as §2

T1 sequence (P50750 whole entry): as the sequence (P50750 whole entry) above

Growth Arrest and DNA Damage-Inducible Proteins-Interacting Protein 1 [CRIF1]
presence in / binding to CDK9 complexes [1]: not present; also recorded: does not bind | CDK9/P-TEFb phosphorylation of the GST-CTD substrate ([2]; listed as Recombinant CRIF1): does not inhibit | CDK9/P-TEFb phosphorylation of the GST-CTD substrate ([2]; listed as rCRIF): no effect | presence in / binding to CDK8 complexes [3]: not present; also recorded: does not bind | S65 and T70 phosphorylation of 4E-BP1 by CDK12 [4]: inhibits | S65 and T70 phosphorylation of 4E-BP1 by CDK12 ([4]; listed as rCRIF1): potently and selectively inhibited

— patent publication US20170157212A1, “CDK MODULATORS AND METHODS FOR THE TREATMENT OF CANCER” (Salk Institute for Biological Studies, priority 2015, published 2017)
